No end group written: not given here.
Tested on: dexamethasone-suppressed male FVB/N mice
Test: in vivo Serum Corticosteroid Inhibition Assay (Example 2)
Design: species or system mouse
Conditions: for serum corticosterone at 180 minutes: blood one hour later; for reduction in serum corticosterone levels: ACTH alone normalized to 100%, FIG. 2; for corticosterone induction as percent of that of wildtype ACTH: 1 hour after last peptide injection
Description: The in vivo Serum Corticosteroid Inhibition Assay can include sequential administration of the test compound and the corticosteroid-producing compound by the following steps: first, an agent to suppress endogenous ACTH production was administered to a mouse subject, such as an intraperitoneal injection of dexamethasone; second, after waiting a suitable period of time for suppression of endogenous ACTH production (e.g., 1.5-2.0 hours), a test compound was administered to the mouse by a suitable method, such as intraperitoneal injection; third, after waiting a suitable period of time (e.g., 1 hour) for action of the test compound, a compound with corticosteroid-producing activity can be administered to the mouse by a suitable method, such as intraperitoneal injection; and fourth, after waiting a suitable period of time for the biological activity of both administered compounds to occur (e.g., 1 hour), a blood sample was taken from the subject and the level of serum corticosterone was determined by a suitable method, such as a competitive radioimmunoassay using ^125I RIA kit (ICN, Costa Mesa, Calif.). Optionally, steps two and three can be reversed (administering the corticosteroid-producing compound first, followed by administration of the test compound). The in vivo Serum Corticosteroid Inhibition Assay can also include co-administration of the test compound and the corticosteroid-producing compound by the following steps: first, an agent to suppress endogenous ACTH production was administered to a mouse subject, such as an intraperitoneal injection of dexamethasone; second, after waiting a suitable period of time for suppression of endogenous ACTH production (e.g., 1.5-2.0 hours), the corticosteroid-producing compound and a test compound were co-administered to the mouse by a suitable method, such as intraperitoneal injection; and third, after waiting a suitable period of time for the biological activity of both administered compounds to occur (e.g., 1 hour), a blood sample was taken from the subject and the level of serum corticosterone was determined by a suitable method, such as a competitive radioimmunoassay using ^125I RIA kit (ICN, Costa Mesa, Calif.). Also, in some embodiments, the first step in any in vivo Serum Corticosteroid Inhibition Assay can be replaced by a measurement of the initial endogenous corticosteroid or corticosteroid level in the blood of the subject in the manner of step four, instead of administering the agent to suppress ACTH production. Example 2 describes murine in vivo Serum Corticosteroid Inhibition Assays in detail.
A series of separate in vivo Serum Corticosteroid Inhibition Assays were performed to identify ACTH analogs that inhibit ACTH adrenal hormone production in vivo. The serum corticosterone levels of dexamethasone-suppressed mice were measured as described in Example 2 after administration of (1) ACTH (corticosteroid-producing compound), (2) an ACTH analog (test compound) followed by subsequent administration of ACTH, (3) a combination of ACTH and the ACTH analog and (4) the ACTH analog alone.
The in vivo Serum Corticosteroid Inhibition Assay was performed according the following method. The ACTH analog test compounds, such as those showing low activities in Example 1, were tested for their abilities to inhibit adrenal hormone production induced by unmodified ACTH.
First, two to three month-old male FVB/N mice from our colony, five per group, were injected intraperitoneally with dexamethasone (0.4 mg/0.1 ml PBS per mouse; Sigma, St. Louis, Mo.) to suppress their endogenous ACTH production.
Second, ninety to one hundred twenty minutes later, animals were injected subcutaneously between the shoulder blades with wild type ACTH and/or test ACTH analog peptides (1 μg/0.1 mL PBS/0.5% BSA) or with vehicle alone (0.1 mL PBS/0.5% BSA). […]

N-Ser^1-Tyr-Ser-Met-Glu^5-His-Phe-Arg-Trp-Gly^10-Lys-Pro-Val-Gly-Lys^15-Arg-Ala-Ala-Trp-Val^20-Lys-Val-Tyr-Pro-Ac (SYSMEHFRWGKPVGKRAAWVKVYP; not fully specified; printed as N-Ser1-Tyr-Ser-Met-Glu5-His-Phe-Arg-Trp-Gly10-Lys-Pro-Val-Gly-Lys15-Arg-Ala-Ala-Trp-Val20-Lys-Val-Tyr-Pro-Ac) [AT814]
serum corticosterone at 180 minutes (ACTH analog alone 120 minutes after dexamethasone (AT), listed as (KKRRP15-19KRAAW) mACTH(1-24)): about 7±7 ng/mL | serum corticosterone at 180 minutes (ACTH analog alone 120 minutes after dexamethasone (AT), listed as (KKRRP15-19KRAAW)mACTH(1-24)): 7 ± 7 ng/mL | serum corticosterone at 180 minutes (ACTH analog at 90 minutes, mACTH(1-24) at 120 minutes after dexamethasone (AT90-ACTH120), listed as (KKRRP15-19KRAAW) mACTH(1-24)): 175 ± 27 ng/mL | serum corticosterone at 180 minutes (ACTH analog at 90 minutes, mACTH(1-24) at 120 minutes after dexamethasone (AT90-ACTH120), listed as (KKRRP15-19KRAWW)mACTH(1-24)): 175 ± 27 ng/mL | serum corticosterone at 180 minutes (ACTH analog together with mACTH(1-24) at 120 minutes after dexamethasone ((AT + ACTH)120)): 51 ± 8 ng/mL | serum corticosterone at 180 minutes (ACTH analog together with mACTH(1-24) at 120 minutes after dexamethasone ((AT + ACTH)120), listed as (KKRRP15-19KRAAW)mACTH(1-24)): 51 ± 8 ng/mL | reduction in serum corticosterone levels (analog 30 minutes before ACTH): ~65% | reduction in serum corticosterone levels (analog concurrently with ACTH): ~90% | corticosterone induction as percent of that of wildtype ACTH (applied 30 minutes before the ACTH injection): 35% | corticosterone induction as percent of that of wildtype ACTH (applied at the same time as the ACTH injection): 10%

From patent publication US7919577B2, “Adrenocorticotropic hormone analogs and related methods” (Colorado Seminary, priority 2004, dated 2011)
